Source: paper PMC6804443 (Acta Pharmaceutica Sinica. B, 2019)
Entries after “also recorded” stand apart in the source; their conditions may differ.

How the values were obtained:
[1] = tested on: human drug metabolizing enzymes and transporters; test: Inhibitory DDI index of XueBiJing compounds as perpetrators; conditions: XueBiJing at label dose; range over the named compounds
[2] = XueBiJing compounds; cited from earlier work
CYP2B6 = CYP2B6 induction by XueBiJing compounds in cryopreserved human hepatocytes; assay type: in vitro ADME; conditions: higher concentrations; range over the named compounds and enzymes
CYP2C9 [3] = molecular target: T1, CYP2C9 (Homo sapiens, UniProt P11712); assay type: in vitro ADME
T1 sequence (P11712 whole entry): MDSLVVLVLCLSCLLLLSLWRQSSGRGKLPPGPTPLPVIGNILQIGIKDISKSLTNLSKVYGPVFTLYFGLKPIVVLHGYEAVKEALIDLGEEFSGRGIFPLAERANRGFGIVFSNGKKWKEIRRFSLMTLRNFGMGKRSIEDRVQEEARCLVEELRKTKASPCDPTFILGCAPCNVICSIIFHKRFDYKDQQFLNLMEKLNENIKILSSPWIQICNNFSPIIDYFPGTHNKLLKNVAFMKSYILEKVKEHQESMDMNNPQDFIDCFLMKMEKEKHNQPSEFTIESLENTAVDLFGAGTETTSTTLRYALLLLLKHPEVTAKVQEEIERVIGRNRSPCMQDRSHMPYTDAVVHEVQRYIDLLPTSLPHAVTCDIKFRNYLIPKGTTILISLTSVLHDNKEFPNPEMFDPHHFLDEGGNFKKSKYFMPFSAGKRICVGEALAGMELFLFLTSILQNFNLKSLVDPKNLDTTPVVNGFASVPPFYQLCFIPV

CYP2C9 [4] = molecular target: T1, CYP2C9; test: CYP2C9 inhibition by XueBiJing compounds, cDNA-expressed enzyme [MFC→HFC]; assay type: in vitro ADME
UGT1A1 = molecular target: T2, UGT1A1 (Homo sapiens, UniProt P22309); test: UGT1A1 inhibition by XueBiJing compounds, cDNA-expressed enzyme [E2→E23βG]; assay type: in vitro ADME
T2 sequence (P22309 26-533): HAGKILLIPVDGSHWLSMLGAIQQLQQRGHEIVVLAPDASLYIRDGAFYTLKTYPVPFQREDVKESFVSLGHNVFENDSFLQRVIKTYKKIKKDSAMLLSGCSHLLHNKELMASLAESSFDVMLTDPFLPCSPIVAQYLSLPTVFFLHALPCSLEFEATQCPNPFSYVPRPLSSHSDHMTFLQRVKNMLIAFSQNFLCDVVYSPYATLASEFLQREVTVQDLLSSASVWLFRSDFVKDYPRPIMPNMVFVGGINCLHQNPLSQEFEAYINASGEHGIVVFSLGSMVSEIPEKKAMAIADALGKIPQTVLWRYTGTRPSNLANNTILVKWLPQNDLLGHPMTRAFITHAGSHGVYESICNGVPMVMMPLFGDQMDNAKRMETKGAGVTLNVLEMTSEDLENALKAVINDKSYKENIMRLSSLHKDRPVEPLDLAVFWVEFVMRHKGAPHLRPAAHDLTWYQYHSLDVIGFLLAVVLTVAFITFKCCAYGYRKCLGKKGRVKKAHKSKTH

CYP1A2 = conditions: higher concentrations; range over the named compounds and enzymes
UGT1A6 = molecular target: T3, UGT1A6 (Homo sapiens, UniProt P19224); test: UGT1A6 inhibition by XueBiJing compounds, cDNA-expressed enzyme [4-MU→4-MUG]; assay type: in vitro ADME
T3 sequence (P19224 27-532): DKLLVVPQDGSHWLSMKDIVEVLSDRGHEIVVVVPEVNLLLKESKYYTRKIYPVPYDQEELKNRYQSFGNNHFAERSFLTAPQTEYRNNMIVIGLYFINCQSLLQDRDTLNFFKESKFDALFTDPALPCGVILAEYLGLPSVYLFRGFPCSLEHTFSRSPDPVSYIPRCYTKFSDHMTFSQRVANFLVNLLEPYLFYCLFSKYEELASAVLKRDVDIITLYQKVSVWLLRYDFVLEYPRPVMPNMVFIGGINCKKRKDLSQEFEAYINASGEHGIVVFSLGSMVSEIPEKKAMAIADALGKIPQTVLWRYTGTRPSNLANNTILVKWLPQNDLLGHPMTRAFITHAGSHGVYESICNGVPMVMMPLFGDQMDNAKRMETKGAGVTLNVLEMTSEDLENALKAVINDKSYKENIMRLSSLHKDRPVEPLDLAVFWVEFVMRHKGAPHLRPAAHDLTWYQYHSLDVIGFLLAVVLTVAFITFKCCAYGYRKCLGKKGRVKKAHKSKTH

[5] = cited from earlier work
OATP1B3 = molecular target: T4, OATP1B3 (Homo sapiens, UniProt Q9NPD5)
T4 sequence (Q9NPD5 1-702): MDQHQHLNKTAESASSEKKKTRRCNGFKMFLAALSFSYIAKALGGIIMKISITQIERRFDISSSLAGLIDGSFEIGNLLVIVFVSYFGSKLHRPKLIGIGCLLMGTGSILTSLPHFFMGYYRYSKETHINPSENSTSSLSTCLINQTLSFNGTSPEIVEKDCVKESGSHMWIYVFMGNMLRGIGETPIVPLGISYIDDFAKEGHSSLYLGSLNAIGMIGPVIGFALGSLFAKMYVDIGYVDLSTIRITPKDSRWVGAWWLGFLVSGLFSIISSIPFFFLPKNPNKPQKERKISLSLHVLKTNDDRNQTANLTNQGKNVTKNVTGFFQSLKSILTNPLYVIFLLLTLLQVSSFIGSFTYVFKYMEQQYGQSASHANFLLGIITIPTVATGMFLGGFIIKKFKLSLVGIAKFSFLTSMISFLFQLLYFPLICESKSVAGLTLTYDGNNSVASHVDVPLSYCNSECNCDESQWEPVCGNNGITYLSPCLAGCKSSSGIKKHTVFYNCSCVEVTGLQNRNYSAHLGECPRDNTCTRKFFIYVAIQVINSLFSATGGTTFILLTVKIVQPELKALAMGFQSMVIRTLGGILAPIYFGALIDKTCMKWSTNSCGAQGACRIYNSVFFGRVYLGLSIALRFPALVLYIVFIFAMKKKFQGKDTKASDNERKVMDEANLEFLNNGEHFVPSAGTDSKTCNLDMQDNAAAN

CYP2C19 [6] = molecular target: T5, CYP2C19 (Homo sapiens, UniProt P33261); test: CYP2C19 inhibition by XueBiJing compounds, cDNA-expressed enzyme [CEC→CHC]; assay type: in vitro ADME
T5 sequence (P33261 whole entry): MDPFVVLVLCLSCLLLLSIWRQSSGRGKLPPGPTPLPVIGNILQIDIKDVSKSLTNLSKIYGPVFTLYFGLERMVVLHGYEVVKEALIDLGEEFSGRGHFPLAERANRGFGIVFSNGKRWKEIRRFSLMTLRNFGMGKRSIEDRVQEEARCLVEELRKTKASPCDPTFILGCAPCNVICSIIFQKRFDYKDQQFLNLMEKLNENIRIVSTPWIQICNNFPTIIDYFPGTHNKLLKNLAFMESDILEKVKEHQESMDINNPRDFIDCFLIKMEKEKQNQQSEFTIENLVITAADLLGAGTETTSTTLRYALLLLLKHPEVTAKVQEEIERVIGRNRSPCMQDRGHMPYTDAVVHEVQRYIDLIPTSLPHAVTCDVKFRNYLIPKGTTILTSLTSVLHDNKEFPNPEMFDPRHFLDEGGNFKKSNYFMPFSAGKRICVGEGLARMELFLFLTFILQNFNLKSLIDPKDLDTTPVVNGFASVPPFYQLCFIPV

UGT2B15 = molecular target: T6, UGT2B15 (Homo sapiens, UniProt P54855); test: UGT2B15 inhibition by XueBiJing compounds, cDNA-expressed enzyme [SENI→S7G]; assay type: in vitro ADME
T6 sequence (P54855 24-530): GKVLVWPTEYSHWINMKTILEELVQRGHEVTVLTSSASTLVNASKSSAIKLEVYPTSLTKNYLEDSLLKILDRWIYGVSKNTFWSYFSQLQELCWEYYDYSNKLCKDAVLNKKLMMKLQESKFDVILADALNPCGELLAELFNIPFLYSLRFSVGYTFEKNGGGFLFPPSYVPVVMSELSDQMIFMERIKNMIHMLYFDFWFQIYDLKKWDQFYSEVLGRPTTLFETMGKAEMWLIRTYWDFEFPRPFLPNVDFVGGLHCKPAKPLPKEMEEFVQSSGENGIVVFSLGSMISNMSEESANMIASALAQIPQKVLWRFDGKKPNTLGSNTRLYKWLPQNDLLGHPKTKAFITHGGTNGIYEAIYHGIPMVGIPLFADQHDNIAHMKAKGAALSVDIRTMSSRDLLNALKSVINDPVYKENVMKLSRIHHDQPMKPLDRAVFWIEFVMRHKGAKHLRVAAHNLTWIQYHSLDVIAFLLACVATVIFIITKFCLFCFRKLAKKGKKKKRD

CYP2C19 [7] = molecular target: T5, CYP2C19; assay type: in vitro ADME
[8] = human, XueBiJing 100 mL via 75-min intravenous infusion

DDI index for inhibition of CYP2C9, CYP2C19, OATP1B1, OATP1B3, OAT1 and/or OAT3 [1]: 0.00003–0.06 | mRNA-T/U ratio, CYP2B6 (CYP2B6): 4.0 to 9.6 | Time-dependent inhibition of CYP2C9 (CYP2C9 [3]): negligible | IC50 (CYP2C9 [4]): 75 ± 13 µM | inhibition at 100 μmol/L (CYP2C9 [4]; human, cDNA-expressed CYP2C9, probe MFC (75 μmol/L)): 68 to 80% | IC50 (UGT1A1): 10 ± 1 µM | inhibition at 100 μmol/L (UGT1A1; human, cDNA-expressed UGT1A1, probe E2 (20 μmol/L), E23βG formed): > 90% | mRNA-T/U ratio, CYP1A2 (CYP1A2): 4.0 to 9.6 | IC50 (UGT1A6): 15 ± 1 µM | inhibition at 100 μmol/L (UGT1A6; human, cDNA-expressed UGT1A6, probe 4-MU (100 μmol/L), 4-MUG formed): > 90% | IC50 (OATP1B3): 18 ± 4 µM | IC50 (CYP2C19 [6]): 19 ± 4 µM | inhibition at 100 μmol/L (CYP2C19 [6]; human, cDNA-expressed CYP2C19, probe CEC (25 μmol/L)): 68 to 80% | IC50 (UGT2B15): 92 ± 25 µM | inhibition at 100 μmol/L (UGT2B15; human, cDNA-expressed UGT2B15): 55% | Time-dependent inhibition of CYP2C19 (CYP2C19 [7]): negligible
SMILES: O=C(/C=C/c1ccc(O)c2c1[C@H](C(=O)O[C@H](Cc1ccc(O)c(O)c1)C(=O)O)[C@@H](c1ccc(O)c(O)c1)O2)O[C@H](Cc1ccc(O)c(O)c1)C(=O)O [X10, salvianolic acid B]
Membrane permeability [2]: Poor | fu-p (unbound fraction in plasma) ([5]; human plasma): 3% | Cmax [5, 8]: 0.1 µM | VSS [5, 8]: 1.28 L/kg | t1/2 [5, 8]: 12 min | Major elimination route ([5]; human): Hepatobiliary excretion; also recorded: Hepatic methylation
